Data: patent US10377711B2, “Cannabinoid type 1 receptor modulators” (priority 2014, dated 2019)

Legend:
[1] = target: T1, CB1 receptor (HEK293 CB1 β-arrestin cells) (Homo sapiens, UniProt P21554); test: PathHunter β-Arrestin assay, enhancement of anandamide stimulation; assay type: cell-based; details: maximum % increase in stimulation caused by anandamide; for Potency % Enhancement 1000 nM: 1000 nM test compound
T1 construct: host or cells: HEK293 CB1 β-arrestin cells (PathHunter)
Excerpt: PathHunter™ β-Arrestin Assays
β-Arrestins are multifunctional intracellular proteins that interact with a structurally diverse group of cell surface receptors including GPCRs, to regulate cellular functions (see, e.g., Violin and Lefkowitz, 2007).
PathHunter™ enzyme fragment complementation is the most important method to measure β-arrestin recruitment. PathHunter™ β-Arrestin assays developed by DiscoveRX are revolutionary high-throughput screening assays for monitoring GPCR activation following ligand stimulation, without an imaging instrument, fluorescent protein tag, or radioactivity.
Instead, the assays detect GPCR activation through binding of β-arrestin to the expressed GPCR of interest, and measure the interaction of the two proteins using enzyme fragment complementation (EFC). The EFC approach offers a range of benefits for screening; including signal amplification and robust performance.
The larger portion of β-gal, termed EA for enzyme acceptor, is fused to the C-terminus of β-arrestin. The smaller, complementing fragment of β-gal, the ProLink™ tag, is expressed as a fusion protein with the GPCR of interest at the C-terminus. Upon activation, the GPCR is bound by β-arrestin. The interaction of β-arrestin and the GPCR forces the interaction of ProLink and EA, thus allowing complementation of the two fragments of β-gal and the formation of a functional enzyme capable of hydrolyzing substrate and generating a […] signal.
Using the PathHunter™ CB1 kit from DiscoveRX, a cannabinoid CB1 receptor agonist is added and activates the receptor, EA, which is fused to the C-terminus of β-arrestin, and then interacts with the ProLink™ tag which is fused to the CB1 receptor. This will result in the […] signal that is recorded by a luminescence plate reader. The […] signal is directly related to the activation of the receptor, therefore a higher concentration of agonist will yield a larger […] signal. The cannabinoid agonist is added in increasing concentrations to obtain an agonist dose response curve. With pre-incubation of a potential allosteric modulator, either an enhancement of agonist signalling with an allosteric enhancer or a decrease in the maximal response of the agonist with an allosteric inhibitor is expected.
All raw data are obtained as luminescence (relative light units), and are normalised and presented as a percentage of the maximal response for the endogenous cannabinoid CB1 receptor agonist anandamide (N-arachidonoylethanolamine).
The PathHunter™ β-Arrestin assay (from DiscoveRX, Fremont, USA) was performed as follows. HEK293 CB1 β-arrestin cells were plated 48 hours before use and incubated at 37° C., 5% CO2 in a humidified incubator. Test compounds were dissolved in dimethylsulfoxide (DMSO) and diluted in optimized cell culture media (OCC, as supplied by DiscoveRX) media to the required concentrations. 5 μL of test compound or vehicle solution was added to each well and incubated for 60 minutes at 37° C., 5% CO2 in a humidified incubator. 5 μL of increasing concentrations of anandamide was added to each well followed by a 90 minute incubation at 37° C., 5% CO2 in a humidified incubator. 55 μL of detection reagent (as supplied by DiscoveRX) was then added, followed by a further 90 minute incubation at room temperature in the dark. Chemiluminescence, reported in relative light units (RLU—a dimensionless value, standardised as a % of maximum stimulation with anandamide), was measured on a standard luminescence plate reader.
Data were plotted as % of maximal stimulation (Emax) caused by agonist versus the logarithm of concentration of agonist, in the presence or absence of a fixed concentration of test compound (modulator) or vehicle. For example, stimulation in the presence of agonist alone will give a value for stimulation expressed in RLU, which can be expressed as a range from 0% (at lowest agonist concentration, e.g., 1 nM) to 100% (at the highest agonist concentration, e.g., 10 μM). […]

[2] = in vitro; details: both, microsomes, pH 7.4
Method: Human and Rat Liver Microsomal Stability Assay
The metabolic stability of the compounds of the Formula (I) was measured by determination of the rate of compound disappearance when incubated in the presence of both human and rat liver microsomes. Liver microsomes are prepared from the endoplasmic reticulum of hepatocytes and are the primary source of the most important enzymes (cytochrome P450) involved in drug metabolism. Study of drug stability in the presence of liver microsomes is accepted as a valuable model permitting rapid prediction of in vivo drug stability.
Human and rat liver microsomes were obtained from a commercial source. Test compounds (3 μM) were incubated with pooled liver microsomes (male and female). Samples were incubated for a 45 minute period and removed at 5 time points and test compounds were analysed by LC-MS/MS.
The final incubation volume was 25 μL. A control incubation was included for each compound tested, where 0.1 M phosphate buffer pH 7.4 was added instead of NADPH. The control compounds testosterone and 7-hydroxycoumarin were included in each experiment and all incubations were performed singularly for each compound.
Each compound was incubated for 0, 5, 15, 30, and 45 minutes. The control (minus NADPH) was incubated for 45 minutes only. The reactions were stopped by the addition of 50 μL methanol containing internal standard at the appropriate time points. The incubation plates were centrifuged at 2500 rpm for 20 minutes at 4° C. to precipitate the protein.
Following protein precipitation, the sample supernatants were combined in cassettes of up to 4 compounds and analysed using standard LC-MS/MS conditions.
From a plot of the natural logarithm of the peak area ratio (i.e., the ratio of compound peak area:internal standard peak area) against time, the gradient of the line was determined. Subsequently, half-life and intrinsic clearance were calculated using the equations below: Eliminated Rate Constant (k)=(−Gradient).

[3] = target: T2, CB1 receptor (Mus musculus, UniProt P47746); details: equilibrium binding assay; cited from earlier work
[4] = target: T2, CB1 receptor; design: from the CB1 receptor in mouse brain membranes; host or cells: mouse brain membranes; details: mouse brain membranes; cited from earlier work
[5] = system: C57BL/6J mice; FAAH knockout mice; details: cited from earlier work
[6] = system: CCI model; details: antagonized by rimonabant; cited from earlier work

T1 sequence (P21554 whole entry): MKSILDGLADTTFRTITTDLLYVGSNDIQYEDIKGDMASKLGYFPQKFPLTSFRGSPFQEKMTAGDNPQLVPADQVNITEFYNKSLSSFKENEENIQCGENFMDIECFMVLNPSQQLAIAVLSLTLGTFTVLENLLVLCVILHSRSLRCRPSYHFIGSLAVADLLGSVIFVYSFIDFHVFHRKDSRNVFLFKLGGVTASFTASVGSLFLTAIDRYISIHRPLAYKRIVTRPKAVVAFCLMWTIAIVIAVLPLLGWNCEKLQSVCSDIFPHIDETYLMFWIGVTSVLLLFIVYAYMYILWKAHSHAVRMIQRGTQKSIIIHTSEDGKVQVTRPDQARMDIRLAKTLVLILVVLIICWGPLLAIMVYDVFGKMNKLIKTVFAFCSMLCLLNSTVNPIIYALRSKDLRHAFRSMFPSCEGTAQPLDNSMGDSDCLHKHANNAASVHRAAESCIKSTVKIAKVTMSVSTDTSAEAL
T2 sequence (P47746 whole entry): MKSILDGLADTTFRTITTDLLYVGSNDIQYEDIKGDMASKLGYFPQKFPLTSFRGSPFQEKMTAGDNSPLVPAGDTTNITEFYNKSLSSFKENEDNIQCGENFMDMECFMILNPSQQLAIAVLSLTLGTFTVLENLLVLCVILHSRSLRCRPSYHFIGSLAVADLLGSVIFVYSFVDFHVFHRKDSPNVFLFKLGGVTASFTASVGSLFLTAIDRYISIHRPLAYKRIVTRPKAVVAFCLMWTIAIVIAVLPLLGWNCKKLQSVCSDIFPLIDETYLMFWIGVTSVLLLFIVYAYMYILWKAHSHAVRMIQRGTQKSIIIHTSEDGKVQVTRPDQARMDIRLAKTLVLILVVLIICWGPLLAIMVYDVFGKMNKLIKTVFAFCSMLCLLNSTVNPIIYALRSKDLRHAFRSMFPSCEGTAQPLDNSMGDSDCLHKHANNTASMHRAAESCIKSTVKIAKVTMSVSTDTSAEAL

| Compound | Potency % Enhancement 1000 nM [1] [%] | microsomal CLint at 3 μM ([2]; human) [µL/min/mg] | binding of CP55940 [3] | binding of radiolabelled inverse agonist SR141716A [3] | dissociation of radiolabelled CB1 receptor agonist CP55940 from the CB1 receptor [4] | also measured |
| --- | --- | --- | --- | --- | --- | --- |
| Cc1ccc2c(C(C[N+](=O)[O-])c3ccccc3)c(-c3ccccc3)[nH]c2c1 (stereo not shown) [ABD999] | 76.8 | 29.1 |  |  |  | half-life at 3 μM ([2]; human): 47.7 min |
| Cc1ccc2c(C(c3cccs3)C(C#N)C#N)c(-c3ccccc3)[nH]c2c1 (stereo not shown) [ABD1155, 2-((6-Methyl-2-phenyl-1H-indol-3-yl)(thiophen-2-yl)methyl)malononitrile] | 67.4 |  |  |  |  |  |
| Cc1ccc2c(C(CC(F)(F)F)c3cccs3)c(-c3ccccc3)[nH]c2c1 (stereo not shown) [ABD1187, 6-Methyl-2-phenyl-3-(3,3,3-trifluoro-1-(thiophen-2-yl)propyl)-1H-indole] |  | 5 |  |  |  |  |
| CCc1c(C(=O)NCCc2ccc(N3CCCCC3)cc2)[nH]c2ccc(Cl)cc12 [ORG27569] |  |  | increase | decrease | slowing of the dissociation |  |
| CCc1c(C(=O)NCCc2ccc(N(C)C)cc2)[nH]c2ccc(F)cc12 [ORG27759] |  |  | increase | decrease | slowing of the dissociation |  |
| CCc1c(C(=O)NC2CCN(Cc3ccccc3)C2)[nH]c2ccc(Cl)cc12 (stereo not shown) [ORG29647] |  |  | increase | decrease | slowing of the dissociation |  |
| Cc1ccc2c(C(C[N+](=O)[O-])c3cccs3)c(-c3ccccc3)[nH]c2c1 (stereo not shown) [ZCZ011] | 126.0 | 37.8 |  |  |  | enhancement of the pharmacological effects of CP55,940 ([5]; 40 mg/kg, C57BL/6J mice): significantly enhanced; enhancement of the pharmacological effects of AEA ([5]; 40 mg/kg, fatty acid amide hydrolase (FAAH) knockout mice): significantly enhanced; potency of AEA in the drug discrimination assay ([5]; 40 mg/kg): significantly increasing; catalepsy, thermal antinociception, hypothermia or changes in locomotor activity ([5]; given alone): did not produce; allodynia induced by mechanical (von Frey filaments) or cold (acetone) stimulation [6]: significantly reversed; Potency % Enhancement 100 nM ([1]; 100 nM test compound): 56.8%; half-life at 3 μM ([2]; human): 36.7 min; half-life at 3 μM ([2]; rat): 8.1 min; microsomal CLint at 3 μM ([2]; rat): 127 µL/min/mg |
